# A melting point compilation (Tetko et al.; mined from patent text by program, amines drawn as free bases though some values may be those of a salt)
row,melting point [°C],Structure (SMILES)
1,251 to 253,CNc1nc(-c2cccc(NC(=O)c3cccnc3)c2)c2cc(OC)c(OC)cc2n1
2,162 to 164,CCOC(=O)c1cc(CN2C(=O)C3(COc4cc5c(cc43)OCO5)c3ccccc32)oc1C(F)(F)F (centres undefined)
3,120 to 123,CC(C)OC(=O)c1cc(-n2nc3ccc(Cl)cn3c2=O)c(F)cc1Cl
4,168 to 169,O=C(NCc1ccc2c(c1)OCO2)c1ccc2n1Cc1ccccc1N(C(=O)COc1ccc(Cl)cc1)C2
